Test results as given in patent US20220054588A1, “USE OF SAP FOR THE TREATMENT OF EUROTIOMYCETES FUNGI INFECTIONS” (HUMANITAS MIRASOLE S.P.A., priority 2018, published 2022).

Tests used:
[1] = tested on: human neutrophils; assay: Phagocytosis of A. fumigatus conidia by isolated human neutrophils in normal or complement-depleted human sera; assay type: cell-based
Method: FIG. 8 depicts the initiation of classical complement activation at the bases of SAP-mediated phagocytosis. a) fluorescein-labelled AF conidia (1.6×10^6) phagocytosis by freshly isolated human neutrophils (2×10^5) in presence of sera depleted (−) from complement components and the effect of SAP opsonisation after 1 and 30 min AF conidia (2×10^8) opsonisation with 100 μg of human native SAP. 5% (left) or 10% (right) of human sera were used. Mean±SEM;*, P<0.05;**, P<0.01;***, P<0.005;***, P<0.0001 (Mann-Whitney test). b) FACS analysis of C1q deposition on AF conidia (1×10^7) in presence of plasma from wt or Apcs^−/− mice. Mean±SEM;*, P=0.05.
Human neutrophils were isolated from fresh whole blood of healthy volunteers through separation from erythrocytes by 3% dextran (GE Healthcare Life Sciences) density gradient sedimentation followed by Ficoll-Paque PLUS (GE Healthcare Life Sciences) and 62% Percoll® (Sigma-Aldrich) centrifugation as previously described (Moalli et al., 2010). Purity, determined by FACS analysis on forward scatter/side scatter parameters, was routinely >98%. 1×10^5 neutrophils were incubated for 1 and 30 min at 37° C. in 50 μl RPMI-1640 medium with 5 and 10% normal human serum (NS) or complement depleted sera and 1×10^5 FITC-labelled A. fumigatus conidia. Cells were transferred on ice and, after washing with PBS, pH 7.4, containing 10 mM EDTA and 0.2% bovine serum albumin (BSA; Sigma-Aldrich), FITC fluorescence in neutrophils (CD45-positive cells, neutrophils defined as FSC-A^high/SSC-A^high) was analysed by BD FACS Canto™ II Flow Cytometer (BD Biosciences). NS and sera depleted for C3, C1q, MBL, FB and FH were all obtained from CompTech (Complement Technology, Inc., USA).

[2] = tested on: A. fumigatus; assay: Rescue experiment: survival after i.t. injection of Sap-opsonised A. fumigatus conidia; assay type: in vivo, mice; details: 5×10^7 i.t.
Method: FIG. 5 depicts the rescue of susceptibility to A. fumigatus in SAP-deficient mice. a) b) c) d) i.t. injection of non-opsonised or Sap-opsonised AF conidia. a) survival of wt and Apcs^−/− mice. Wt, n=10; wt+Sap, n=10; Apcs^−/−, n=14; Apcs^−/−+Sap, n=13.****, P<0.0001, wt vs. Apcs^−/− or Apcs^−/− vs. Apcs^−/−+Sap (Mantel-Cox test). b) and c) levels of TNF-α (b) and MPO (c) in BALFs of mice (16 h). b),****, P<0.0001;**, P<0.01. c),***, P<0.0005. d, FACS analysis of neutrophil recruitment in lung (16 h). Mean±SEM.****, P<0.0001;*, P<0.05. b), c), d), Mean±SEM; Mann-Whitney test.
The growth and culture conditions of A. fumigatus and A. Flavus conidia were as described (Garlanda et al., 2002). For intratracheal (i.t.) injection, mice were anesthetized by i.p. injection of ketamine (100 mg/Kg; i.p.) and xylazine (10 mg/Kg i.p.). After surgical exposure, a volume of 50 μl PBS^2+, pH 7.4, containing 1×10^8 or 5×10^7 resting conidia (>95% viable, as determined by serial dilution and plating of the inoculum on Sabouraud dextrose agar) were delivered into trachea under direct vision using a catheter connected to the outlet of a micro-syringe (Terumo, Belgium). Survival to infection was daily monitored for 10d later. Dying mice were euthanized after evaluation of the following clinical parameters: body temperature dropping, intermittent respiration, solitude presence, sphere posture, fur erection, non-responsive alertness, and inability to ascent when induced.
In experiments of in vivo phagocytosis, mice were i.t. injected with 5×10^7 heat inactivated fluorescein isothiocyanate (FITC)-labelled conidia and euthanized 4 h later. In rescue experiments, conidia (1×10^9) were opsonized with murine recombinant SAP (50 μg/ml; R&D Systems) for 1 h at r.t. in PBS, pH 7.4, containing 0.01% (vol/vol) Tween-20® (Merck-Millipore). After washing of unbound protein, a volume of 50 μl (5×10^7 conidia) was i.t. injected.

Molecule	potentiation of phagocytosis ([1]; C1q-depleted serum)	potentiation of phagocytosis ([1]; C3-depleted serum)	potentiation of phagocytosis ([1]; MBL-depleted serum 5%)	potentiation of phagocytosis ([1]; MBL-depleted serum 10%)	potentiation of phagocytosis ([1]; normal human serum 5%)	potentiation of phagocytosis ([1]; normal human serum 10%)	MST ([2]; Apcs−/− mice)	mice that resisted infection (survival) ([2]; Apcs−/− mice)	MST ([2]; wt mice)	survival ([2]; wt mice)
human native SAP: Native SAP from human serum purchased by Merck-Millipore; Serum Amyloid P component, SEQ ID NO: 1	but not	but not	55.5±17.0%	19.8±6.1%	37.4±10.3%	18.3±2.0%	–	–	–	–
recombinant murine SAP: recombinant murine SAP from mouse myeloma cell line NSO (R&D Systems) (protein, UniProt P12246 21-224, looked up) Serum amyloid P-component: QTDLKRKVFVFPRESETDHVKLIPHLEKPLQNFTLCFRTYSDLSRSQSLFSYSVKGRDNELLIYKEKVGEYSLYIGQSKVTVRGMEEYLSPVHLCTTWESSSGIVEFWVNGKPWVKKSLQREYTVKAPPSIVLGQEQDNYGGGFQRSQSFVGEFSDLYMWDYVLTPQDILFVYRDSPVNPNILNWQALNYEINGYVVIRPRVWD	–	–	–	–	–	–	> 10 days	69%	> 10	70%
